The test system of assay [1] is H9c2. Kind of assay: Protection against H2O2 induced myocardial cell injury in rat H9c2 cells assessed as fold change at 10 uM pretreated for 24 hrs followed by H2O2 exposure and measured after 1.5 hrs relative to H2O2 alone. It counts as functional. To be noted: time 25.5 hrs.
Assay [2] deals with H9c2. Kind of assay: Protection against H2O2 induced myocardial cell injury in rat H9c2 cells at 10 uM pretreated for 24 hrs followed by H2O2 exposure and measured after 1.5 hrs (reference value: 17.91 to 57.32%). Type of assay: functional. To be noted: time 25.5 hrs.
The subject of assay [3] is H9c2. Kind of assay: Protection against H2O2 induced myocardial cell injury in rat H9c2 cells at 5 uM pretreated for 24 hrs followed by H2O2 exposure and measured after 1.5 hrs (reference value: 41.79+/-1.59%). To be noted: time 25.5 hrs. Type of assay: functional.
The target of assay [4] is T1, Protein deacetylase HDAC6 (Homo sapiens) (UniProt Q9UBN7).
T1 sequence (whole entry): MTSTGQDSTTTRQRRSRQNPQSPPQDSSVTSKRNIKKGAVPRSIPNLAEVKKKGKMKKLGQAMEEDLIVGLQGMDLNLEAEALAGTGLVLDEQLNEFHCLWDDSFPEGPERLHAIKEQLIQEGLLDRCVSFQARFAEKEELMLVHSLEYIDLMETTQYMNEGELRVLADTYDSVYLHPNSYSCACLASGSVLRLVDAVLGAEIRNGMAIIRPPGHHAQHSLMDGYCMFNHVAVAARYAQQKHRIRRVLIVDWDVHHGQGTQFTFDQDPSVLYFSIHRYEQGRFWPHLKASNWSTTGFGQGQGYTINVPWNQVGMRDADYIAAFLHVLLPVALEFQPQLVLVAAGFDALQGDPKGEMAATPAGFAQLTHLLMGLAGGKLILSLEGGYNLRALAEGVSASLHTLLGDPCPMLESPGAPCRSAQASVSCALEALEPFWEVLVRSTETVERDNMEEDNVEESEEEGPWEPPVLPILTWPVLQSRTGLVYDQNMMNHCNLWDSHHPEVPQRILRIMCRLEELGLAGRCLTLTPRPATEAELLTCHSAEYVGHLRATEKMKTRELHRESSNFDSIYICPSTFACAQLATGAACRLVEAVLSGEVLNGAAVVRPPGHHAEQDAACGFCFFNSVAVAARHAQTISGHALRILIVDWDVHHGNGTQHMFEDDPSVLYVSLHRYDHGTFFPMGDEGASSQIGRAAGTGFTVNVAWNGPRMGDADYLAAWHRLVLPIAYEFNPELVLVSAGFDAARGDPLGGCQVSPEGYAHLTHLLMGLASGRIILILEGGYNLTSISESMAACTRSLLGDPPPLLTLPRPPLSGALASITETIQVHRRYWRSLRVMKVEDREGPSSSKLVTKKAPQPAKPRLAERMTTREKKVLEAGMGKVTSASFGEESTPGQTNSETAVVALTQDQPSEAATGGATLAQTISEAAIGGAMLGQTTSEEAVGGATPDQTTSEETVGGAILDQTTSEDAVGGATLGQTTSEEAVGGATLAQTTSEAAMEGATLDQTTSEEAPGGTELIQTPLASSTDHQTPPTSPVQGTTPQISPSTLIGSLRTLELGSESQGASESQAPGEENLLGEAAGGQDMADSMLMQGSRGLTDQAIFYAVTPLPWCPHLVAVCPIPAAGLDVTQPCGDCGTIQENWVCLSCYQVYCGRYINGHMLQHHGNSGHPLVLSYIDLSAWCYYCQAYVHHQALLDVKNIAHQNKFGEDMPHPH
To be noted: dose 100.0 nM.
Description: Inhibition of HDAC6 (unknown origin) at 100 nM relative to control

The subject of assay [5] is H9c2. Kind of assay: Protection against H2O2 induced myocardial cell injury in rat H9c2 cells assessed as fold change at 5 uM pretreated for 24 hrs followed by H2O2 exposure and measured after 1.5 hrs relative to H2O2 alone. Type of assay: functional. As to conditions: time 25.5 hrs.
Another assay deals with SMMC-7721. Put plainly: Antiproliferative activity against human SMMC-7721 cells assessed as inhibition of cell growth by MTT assay.
The next assay deals with TE-1. Kind of assay: Antiproliferative activity against human TE-1 cells assessed as inhibition of cell growth by MTT assay.
The next assay deals with NCI-H460. Kind of assay: Antiproliferative activity against human NCI-H460 cells assessed as inhibition of cell growth by MTT assay.
The next assay has as its system MGC-803. Kind of assay: Antiproliferative activity against human MGC-803 cells assessed as inhibition of cell growth by MTT assay.
The test system of the next assay is HCT-116. Put plainly: Antiproliferative activity against human HCT-116 cells assessed as inhibition of cell growth by MTT assay. (In general: Tetrazolium dyes change colour on reduction, which living cells bring about.)
A further assay has as its system PC-3. Kind of assay: Antiproliferative activity against human PC-3 cells assessed as inhibition of cell growth by MTT assay.
The test system of the next assay is PANC-1. Kind of assay: Antiproliferative activity against human PANC-1 cells assessed as inhibition of cell growth by MTT assay.
Assay [6] has as its system Mus musculus. Put plainly: Cardioprotective activity against myocardial ischemia/reperfusion induced C57BL/6J mouse model assessed as effect on infarct size of mouse heart at 10 mg/kg by TTC staining based analysis. Type of assay: functional, organism-based.
For assay [7], the system named is Mus musculus. Kind of assay: Cardioprotective activity against myocardial ischemia/reperfusion induced C57BL/6J mouse model assessed as reduction in ST-segment elevation at 10 mg/kg. Type of assay: functional, organism-based.

The source made the active and inactive calls. The calls are words filed in the database; no cut-off is given here.

Usually inhibition stands for the relative decrease from the control value, in per cent. Low values mean little suppression, high ones strong suppression. As usually defined, the IC50 is the concentration needed to halve the response being measured.

As for `O=c1cc(-c2ccc(O)c(O)c2)oc2cc(O)cc(O)c12` [LUTEOLIN], the “fold change (FC)” value is 2.53 in the assay on H9c2 [1] and 2.07 in the assay with H9c2 [5]. Besides, the Activity stood at 91.43% with H9c2 [2] and 86.37% in the assay on H9c2 [3]. This compound also came in with an inhibition in [4] of 1%.

Turning to `Cc1cccc(-c2cc(C(=O)NCc3ccc(C(=O)NO)cc3)c3nccn3c2)c1`, in the assay on H9c2 [2], the Activity is given as 74.81%. Besides, the IC50 with SMMC-7721 was 1.98 µM; in the assay with TE-1, 2.77 µM; in the assay on NCI-H460, over 10 µM; in the assay on MGC-803, 3.47 µM; in the assay with HCT-116, 5.7 µM; in the assay with PC-3, over 10 µM. Also, the IC50 with PANC-1 was over 10 µM.

On to `Cc1ccc(-c2cc(C(=O)NCc3ccc(C(=O)NO)cc3)c3nccn3c2)cc1`, for which the Activity is 84.83% with H9c2 [2] and 83.58% in the assay on H9c2 [3]. Moreover, the IC50 with SMMC-7721 was 1.85 µM; in the assay on TE-1 it was 5.54 µM; in the assay with NCI-H460 it was over 10 µM; with MGC-803, 1.17 µM; in the assay on HCT-116, over 10 µM; with PC-3, over 10 µM. For the same compound, in the assay with PANC-1, the IC50 was found to be 6.15 µM.

Regarding `O=C(NO)c1ccc(NCc2cc(-c3cccc(Cl)c3)cn3ccnc23)cc1`, the Activity in the assay on H9c2 [2] is 73.84%. Moreover, the IC50 with SMMC-7721 is 2.99 µM; in the assay on TE-1 it was over 10 µM; in the assay with NCI-H460 it was over 10 µM; in the assay with MGC-803, 3.82 µM; with HCT-116 it was over 10 µM; in the assay on PC-3, over 10 µM. The IC50 in the assay with PANC-1 was over 10 µM.

`Cc1ccccc1-c1cc(C(=O)NCc2ccc(C(=O)NO)cc2)c2nccn2c1`: the Activity in the assay on H9c2 [2] came to 63.03%. Further, the IC50 in the assay on SMMC-7721 was 2.6 µM; in the assay on TE-1, 2.56 µM; with NCI-H460, 8.67 µM; in the assay on MGC-803, 1.31 µM; in the assay on HCT-116, 9.49 µM; in the assay on PC-3, over 10 µM. Moreover, the IC50 in the assay on PANC-1 was over 10 µM.

With `CCc1ccccc1-c1cc(CNc2ccc(C(=O)NO)cc2)c2nccn2c1`, the “fold change (FC)” value with H9c2 [1] amounted to 2.01. Further, the Activity in the assay with H9c2 [2] was found to be 50.13%.

`Cc1ccc(-c2cc(CNc3ccc(C(=O)O)cc3)c3nccn3c2)cc1`: the “fold change (FC)” value with H9c2 [1] was 1.01. The Activity in the assay with H9c2 [2] was determined as 18.02%.

Turning to `Cc1ccccc1-c1cc(CNc2ccc(C(=O)NO)cc2)c2nccn2c1`, the “fold change (FC)” value in the assay on H9c2 [1] worked out at 1.38. Also, the Activity in the assay with H9c2 [2] is 67.73%.

Regarding `Cc1ccc(-c2cc(CNc3ccc(C(=O)NO)cc3F)c3nccn3c2)cc1`, the “fold change (FC)” value with H9c2 [1] is recorded as 1.36. Also, the Activity in the assay on H9c2 [2] was found to be 52.82%.

For the compound `O=C(NO)c1ccc(NCc2cc(-c3cccc(F)c3)cn3ccnc23)cc1`, in the assay on H9c2 [1], the “fold change (FC)” value stood at 1.46. In addition, the Activity in the assay with H9c2 [2] stood at 53.76%.

Consider `O=C(NO)c1ccc(CNc2cc(-c3ccc(F)cc3)cn3ccnc23)cc1`, for which, in the assay with H9c2 [1], the “fold change (FC)” value stood at 1.86. Moreover, the Activity in the assay with H9c2 [2] was 90.19%.

As for `COc1ccccc1NC(=O)c1ccc(NCc2cc(-c3ccc(C)cc3)cn3ccnc23)cc1`, in the assay with H9c2 [1], the “fold change (FC)” value was found to be 1.61. Also, the Activity with H9c2 [2] is listed as 48.69%.

On to `Cc1ccc(-c2cc(CNc3ccc(C(=O)NNC(C)C)cc3)c3nccn3c2)cc1`, for which the “fold change (FC)” value in the assay with H9c2 [1] was determined as 1.82. In the assay with H9c2 [2], the Activity is given as 54.92%.

Take `COc1cc(-c2cc(C(=O)Nc3ccccc3)c3nccn3c2)cc(OC)c1OC`: in the assay on H9c2 [1], the “fold change (FC)” value is listed as 1.23. Besides, the Activity with H9c2 [2] is reported as 61.69%.

For the compound `Cc1ccc(-c2cc(CNc3ccc(C(=O)N4CCOCC4)cc3)c3nccn3c2)cc1`, the “fold change (FC)” value in the assay on H9c2 [1] is 2.05. In addition, in the assay with H9c2 [2], the Activity is on record as 62.08%.

Take `Cc1ccc(-c2cc(CNc3ccc(C(=O)NN)cc3)c3nccn3c2)cc1`: in the assay on H9c2 [1], the “fold change (FC)” value was found to be 2.63. Besides, the Activity in the assay on H9c2 [2] was 85.94%.

As to `Cc1ccc(-c2cc(CNc3ccc(C(=O)NNc4ccccc4)cc3)c3nccn3c2)cc1`, the “fold change (FC)” value with H9c2 [1] was 2.14. Further, the Activity in the assay with H9c2 [2] stood at 64.68%.

On to `Cc1cccc(-c2cc(CNc3ccc(C(=O)NO)cc3)c3nccn3c2)c1`, for which the “fold change (FC)” value with H9c2 [1] stood at 1.36. The Activity with H9c2 [2] turned out to be 50.3%.

Turning to `Cc1ccc(-c2cc(C(=O)Nc3ccc(C(=O)NO)cc3)c3nccn3c2)cc1`, the “fold change (FC)” value with H9c2 [1] is recorded as 1.84. Moreover, the Activity in the assay with H9c2 [2] is listed as 65.82%.

Turning to `O=C(NO)c1ccc(NCc2cc(-c3ccc(F)cc3)cn3ccnc23)cc1`, the “fold change (FC)” value in the assay with H9c2 [1] is 1.86. In addition, in the assay on H9c2 [2], the Activity was 66.3%.

Regarding `O=C(NO)c1ccc(NCc2cc(-c3cccc(Br)c3)cn3ccnc23)cc1`, the Activity in the assay with H9c2 [2] was 98.49%. The IC50 in the assay on SMMC-7721 was 3.18 µM; in the assay on TE-1, 6.23 µM; in the assay on NCI-H460, 9.44 µM; with MGC-803, 5.07 µM; with HCT-116, over 10 µM; in the assay with PC-3, over 10 µM. For the same compound, in the assay with PANC-1, the IC50 is over 10 µM.

As to `Cc1ccccc1-c1cc(C(=O)Nc2ccc(C(=O)NO)cc2)c2nccn2c1`, the “fold change (FC)” value with H9c2 [1] was found to be 1.57. Moreover, in the assay with H9c2 [2], the Activity is 56.16%.

Turning to `Cc1ccc(-c2cc(CNc3ccc(C(=O)NO)cc3Cl)c3nccn3c2)cc1`, the “fold change (FC)” value in the assay on H9c2 [1] amounted to 2.79. Further, in the assay with H9c2 [2], the Activity came out at 108.57%.

Consider `O=C(NO)c1ccc(NC(=O)c2cc(-c3ccc(F)cc3)cn3ccnc23)cc1`, for which the “fold change (FC)” value in the assay on H9c2 [1] is on record as 2.11. Moreover, the Activity in the assay on H9c2 [2] came out at 74.82%.

For the compound `O=C(CCCCCCC(=O)Nc1ccccc1)NO` [VORINOSTAT], the Activity with H9c2 [2] turned out to be 71.54%. In the assay on TE-1, the IC50 came to 2.25 µM. Moreover, the outcome in the assay with Mus musculus [6] was inactive. Besides, in the assay with Mus musculus [7], the result was Active.

With `O=C(NO)c1ccc(CNc2cc(-c3cccc(F)c3)cn3ccnc23)cc1`, the “fold change (FC)” value in the assay on H9c2 [1] stood at 1.5. For the same compound, the Activity in the assay on H9c2 [2] was 72.58%.

Regarding `Cc1ccc(-c2cc(NCc3ccc(C(=O)NO)cc3)c3nccn3c2)cc1`, the “fold change (FC)” value in the assay on H9c2 [1] is on record as 2.08. Besides, the Activity in the assay with H9c2 [2] is 74.15%.

Consider `COc1ccccc1-c1cc(CNc2ccc(C(=O)NO)cc2)c2nccn2c1`, for which, in the assay with H9c2 [1], the “fold change (FC)” value was determined as 1.9. Further, the Activity in the assay on H9c2 [2] was 67.63%.

Take `Cc1cccc(-c2cc(C(=O)Nc3ccc(C(=O)NO)cc3)c3nccn3c2)c1`: in the assay on H9c2 [1], the “fold change (FC)” value was found to be 2.19. The Activity with H9c2 [2] came out at 78.26%.

The values above are taken from ChEMBL document CHEMBL5550215, “Discovery of Novel Imidazo[1,2-a]pyridine-Based HDAC6 Inhibitors as an Anticarcinogen with a Cardioprotective Effect” (J Med Chem, 2024).
